Reference: US5166208A, “Fredericamycin A derivatives” (Boston College, priority 1991, dated 1992)
≈ marks a conversion by molar mass, not a printed value. Read-outs that look alike come from different tables or passages of the source.

Experiments:
human lung (A549) = assay: In vitro microdilution inhibition, human lung A549; type: cell-based; conditions: A549, 72 hours, 50% of cells killed
Description: (§1) As shown in Table III the compounds of the present invention exert an in vitro antitumor effect. The following cells lines were employed: human lung (A549); resistant human lung with low topo II activity (A549-VP); murine melanoma (B16); human colon tumor (HCT116); human colon tumor with elevated p170 levels (HCTVM); human colon tumor with low topo II activity (HCTVP); and another human colon carcinoma cell line (Moser). In the Table, the designation "NT" indicates the compound was not tested against the specified cell line. The cell lines were maintained in continuous culture at 37°, 5% CO2 and high humidity. Cells were harvested in log phase growth and suspended at concentration of 25,000 cells/mL. A […] aliquot was then added to each well (i.e., 3,750 cells per well) of a 96-well flat bottom plate and the cells were allowed to attach over a 24 hour period. After this 24 hour incubation, a 50 μL sample of the specified compound was added to the first (top) well of each column, and the remaining wells of each column serially diluted, 1:4, and allowed to incubate for 72 hours at 37° C., 5% CO2 and high humidity. Following incubation, 50 μL of freshly prepared stain solution was added to each well. After a 3 hour incubation at room temperature, absorbance was read at 450 nm on a microplate reader to determine the compound concentration at which 50% of the cells were killed, such concentration referred to as the "IC50 ".

[1] = system: resistant human lung with low topo II activity (A549-VP); assay: In vitro microdilution inhibition, resistant human lung A549-VP; type: cell-based; conditions: A549VP, 72 hours, 50% of cells killed
Description: as §1

murine melanoma (B16) = assay: In vitro microdilution inhibition, B16; type: cell-based; conditions: Mus musculus; B16, 72 hours, 50% of cells killed
Description: as §1

[2] = system: human colon tumor (HCT116); assay: In vitro microdilution inhibition, HCT116; type: cell-based; conditions: HCT-116, 72 hours, 50% of cells killed
Description: as §1

[3] = system: human colon tumor with elevated p170 levels (HCTVM); assay: In vitro microdilution inhibition, HCTVM; type: cell-based; conditions: 72 hours, 50% of cells killed
Description: as §1

[4] = system: human colon tumor with low topo II activity (HCTVP); assay: In vitro microdilution inhibition, HCTVP; type: cell-based; conditions: 72 hours, 50% of cells killed
Description: as §1

[5] = system: human colon carcinoma cell line (Moser); assay: In vitro microdilution inhibition, Moser; type: cell-based; conditions: 72 hours, 50% of cells killed
Description: as §1

p388 murine leukemia = assay: In vivo activity against p388 murine leukemia in an acute mouse model; conditions: for AWC (average weight change per mouse): before treatment to day five
Procedure: CDF1 mice of both sexes weighing between 16 and 25 gm. were used, with a 2 gm. weight range and same sex and source used per experiment. BDF1 mice also were used with the same weight, sex and source parameters. Control and test animals were injected interperitoneally with suspension of 1×10^6 p388 murine leukemia cells (0.5 mL dose) on day 0. Groups of 4-6 mice were used for each dosage amount they were treated with 5 doses on day one. A group of ten saline treated control mice was included in each set of experiments. A 30 day protocol was employed with mean survival time in days being determined for each group of mice with the number of survivors at the end of the 30 day period being noted. The mice were weighed before treatment and again on day five. The values listed for average weight change (AWC) is the average weight change per mouse at the specified dose. The change in weight was taken as a measure of drug toxicity. A loss in weight of up to 2 grams is not considered excessive. The results were determined in terms of % T/C which is the ratio of the mean survival time of the treated group to the mean survival time of the saline treated group times 100.

p388 mouse leukemia = conditions: in vitro; cited from earlier work
L1210 mouse leukemia = conditions: in vitro; cited from earlier work

SMILES | IC50 (human lung (A549)) [µg/mL] | IC50 [1] [µg/mL] | IC50 (murine melanoma (B16)) [µg/mL] | IC50 [2] [µg/mL] | IC50 [3] [µg/mL] | IC50 [4] [µg/mL] | IC50 [5] [µg/mL] | AWC (average weight change per mouse) (p388 murine leukemia; BDF1 (female only), 5 mg/kg) | AWC (average weight change per mouse) (p388 murine leukemia; BDF1 (female only), 15 mg/kg) | AWC (average weight change per mouse) (p388 murine leukemia; BDF1 (female only), 45 mg/kg) | response vs control in vivo at 5 mg/kg (p388 murine leukemia; Mus musculus, P388, 720 h, BDF1 (female only), 5 mg/kg, read-out: % T/C (mean survival time treated/control)) [%] | response vs control in vivo at 15 mg/kg (p388 murine leukemia; Mus musculus, P388, 720 h, BDF1 (female only), 15 mg/kg, read-out: % T/C (mean survival time treated/control)) [%] | response vs control in vivo at 45 mg/kg (p388 murine leukemia; Mus musculus, P388, 720 h, BDF1 (female only), 45 mg/kg, read-out: % T/C (mean survival time treated/control)) [%] | cytotoxicity (p388 mouse leukemia) | cytotoxicity (L1210 mouse leukemia) | AWC (average weight change per mouse) (p388 murine leukemia; CDF1 (female only), 5 mg/kg) | AWC (average weight change per mouse) (p388 murine leukemia; CDF1 (female only), 15 mg/kg) | % T/C (mean survival time treated/control) (p388 murine leukemia; CDF1 (female only), 45 mg/kg) | response vs control in vivo at 5 mg/kg (p388 murine leukemia; Mus musculus, P388, 720 h, CDF1 (female only), 5 mg/kg, read-out: % T/C (mean survival time treated/control)) [%] | response vs control in vivo at 15 mg/kg (p388 murine leukemia; Mus musculus, P388, 720 h, CDF1 (female only), 15 mg/kg, read-out: % T/C (mean survival time treated/control)) [%]
COCOc1cccc2c1C1(CC2)C(=O)c2c(O)c3c(c(O)c2C1=O)C(=O)C(Nc1cccc(C(=O)O)c1)=CC3=O (centres unmarked) [Example 20, 2',3'-Dihydro-7'-(methoxymethoxy)-1H-indene-1,-spiro-2-[6-(3-carboxyanilino)-4,9-dihydroxy-2H-benz[f]indene-1,2,5,8-tetrone]] | > 16 | > 16 | > 16 | > 16 | > 16 | > 16 | > 16 | – | – | – | – | – | – | – | – | – | – | – | – | –
CNC1=CC(=O)c2c(O)c3c(c(O)c2C1=O)C(=O)C1(CCc2cccc(OCOC)c21)C3=O (centres unmarked) [Example 12, 2',3'-Dihydro-6-methylamino-7'-(methoxymethoxy)-1H-indene-1'-spiro-2-[4,9-dihydroxy-2H-benz[f]-indene-1,3,5,8-tetrone]] | < 0.03 | 0.05 (≈ 0.111 µM) | 0.03 (≈ 0.0668 µM) | 0.03 (≈ 0.0668 µM) | 0.05 (≈ 0.111 µM) | 0.03 (≈ 0.0668 µM) | 0.03 (≈ 0.0668 µM) | – | – | – | – | – | – | – | – | – | – | – | – | –
CCCCCc1cc2cc3c(c(O)c2c(=O)[nH]1)C1(CC3)C(=O)c2c(O)c3c(c(O)c2C1=O)C(=O)C=CC3=O [Example 8, 2',6',7'-Trihydro-4,9,9'-trihydroxy-3'-(n-pentyl)-spiro[2H-benz[f]-indene-2,8'-[8H]cyclopent[g]isoquinoline]-1,1',3,5,8-pentone] | 24.5 (≈ 47.7 µM) | 26.5 (≈ 51.6 µM) | 18 (≈ 35.1 µM) | 14.5 (≈ 28.2 µM) | – | – | 18.3 (≈ 35.6 µM) | 1.0 | -1.5 | -2.8 | 125 | 135 | 145 | – | – | – | – | – | – | –
C/C=C/C=C/c1cc2cc3c(c(O)c2c(=O)[nH]1)C1(CC3)C(=O)c2c(O)c3c(c(O)c2C1=O)C(=O)C(OC)=CC3=O (centres unmarked) [fredericamycin A] | – | – | – | – | – | – | – | – | – | – | – | – | – | comparable to doxorubicin and actinomycin | comparable to doxorubicin and actinomycin | – | – | – | – | –
CCCCCc1cc2cc3c(c(OCOC)c2c(OC)n1)C1(CC3)C(=O)c2c(O)c3c(c(O)c2C1=O)C(=O)C=CC3=O [Example 7, 6',7'-Dihydro-1-methoxy-9'-(methoxymethoxy)-3'-(n-pentyl)-spiro[2H-benz[f]indene-2,8'-[8H]cyclopent[g]isoquinoline]-1,3,5,8-tetrone] | 5 (≈ 8.75 µM) | 8.5 (≈ 14.9 µM) | 7 (≈ 12.2 µM) | 1.2 (≈ 2.1 µM) | – | 1.2 (≈ 2.1 µM) | 5.9 (≈ 10.3 µM) | – | – | – | – | – | – | – | – | -2.8 | -3.8 | Toxic | 150 | 150
